Assays:
[1] = Log D (1-octanol/phosphate buffer pH 7.4), shake flask method; format: physicochemical
Protocol: Determination of the distribution coefficient (log D1-octanol/phosphate buffer pH 7.4), was carried out by a shake flask method. An aliquot (25 μL) of the tracer agents ^18F]-(3), ^11C]-(4), ^18F]-(5), or ^11C]-(6) (185 to 555 kBq/mL) was added to a polypropylene tube (5 mL; Sarstedt, Nümbrecht, Germany) containing 2 mL of 0.025 M sodium phosphate buffer pH 7.4 and 2 mL of 1-octanol. The tube was vortexed for 2 min at room temperature followed by centrifugation at 3,000 rpm for 10 min (Eppendorf centrifuge 5810, Eppendorf, Westbury, NY, USA). Aliquots of 50 μL of the 1-octanol phase and 500 μL of the phosphate buffer phase were pipetted into separate tared Eppendorf tubes with adequate care to avoid cross contamination between the two phases. The samples were weighed, and radioactivity was quantified using an automated gamma counter. The experiments were carried out sixfold.

[2] = biological target: hCA I (Homo sapiens, UniProt P00915); assay: CA-catalyzed CO2 hydration, stopped-flow inhibition assay; format: biochemical; settings: human (cloned) isozyme; CO2 hydration reaction at 20°C; n = 3
Chain of hCA I (P00915 whole entry): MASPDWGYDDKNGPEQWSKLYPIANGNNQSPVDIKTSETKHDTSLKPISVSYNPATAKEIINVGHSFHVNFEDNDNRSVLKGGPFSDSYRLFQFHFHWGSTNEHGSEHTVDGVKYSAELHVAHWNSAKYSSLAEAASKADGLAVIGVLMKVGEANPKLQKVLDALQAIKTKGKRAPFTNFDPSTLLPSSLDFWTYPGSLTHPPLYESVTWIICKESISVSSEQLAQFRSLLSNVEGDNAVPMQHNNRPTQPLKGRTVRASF
Protocol: (§1) Phenol red (0.2 mM) was used as indicator, working at the absorbance maximum of 557 nm, with 10 mM Hepes as buffer (pH 7.5) and 0.1 M Na2SO4 (for maintaining constant ionic strength) at 25°C following the CA-catalyzed CO2 hydration reaction for a period of 10 to 100 s (the uncatalyzed reaction needs around 60 to 100 s under assay conditions, whereas the catalyzed reactions take around 6 to 10 s). The CO2 concentrations ranged from 1.7 to 17 mM for the determination of kinetic parameters. Each compound was tested in the concentration range between 0.01 nM to 100 μM. The uncatalyzed rates were determined in the same manner and subtracted from the total observed rates. Stock solutions of the compounds (0.1 mM) were prepared in distilled water with 10% to 20% (v/v) DMSO (which is non-inhibitory at these concentrations), and dilutions up to 0.01 nM were made with distilled water. Inhibitor and enzyme solutions were preincubated together for 15 min at room temperature prior to the assay, in order to allow the formation of enzyme-inhibitor complex. The inhibition constants were obtained by nonlinear least square methods using PRISM 3 (GraphPad Software, La Jolla, CA, USA), and they represent the mean from at least three different determinations.

[3] = biological target: hCA II (Homo sapiens, UniProt P00918); assay: as above; format: biochemical; settings: human (cloned) isozyme; CO2 hydration reaction at 20°C; n = 3
Protocol: as §1

[4] = Biodistribution studies in NMRI mice; format: in vivo; settings: i.v.; for Percentage of ID, blood: blood mass assumed 7% of body mass
Protocol: The biodistribution studies were performed in wild-type NMRI mice with body weights ranging from 30 to 40 g. Mice were intravenously injected with 0.1 MBq of ^18F]-(3) or ^18F]-(5) and 5.5 MBq of ^11C]-(4) or ^11C]-(6) under anesthesia (2% isoflurane in O2 at a flow rate of 1 L/min). The animals were killed by decapitation at 2 min or 60 min p.i. (n = 4/time point for ^18F]-(3), ^11C]-(4), and ^11C]-(6); n = 6 for ^18F]-(5)). Blood was collected, and all major organs were dissected and collected in tarred tubes and were weighed. The radioactivity in each organ was counted using an automated gamma counter, corrected for background radioactivity and expressed as follows: percentage of the injected dose (% ID) or as standardized uptake value (SUV) (SUV = (Counts in tissue per gram of tissue) / (Injected counts per total body mass (g)). For the calculation of total radioactivity in the blood, blood mass was assumed to be 7% of the body mass.

logD [1] | Ki [2] [nM] | Ki [3] [nM] | Percentage of ID, brain ([4]; 2 min p.i.) [% ID] | Percentage of ID, carcass ([4]; 2 min p.i.) [% ID] | Percentage of ID, heart ([4]; 2 min p.i.) [% ID] | Percentage of ID, intestines ([4]; 2 min p.i.) [% ID] | Percentage of ID, kidneys ([4]; 2 min p.i.) [% ID] | Percentage of ID, liver ([4]; 2 min p.i.) [% ID] | Percentage of ID, lungs ([4]; 2 min p.i.) [% ID] | Percentage of ID, spleen + pancreas ([4]; 2 min p.i.) [% ID] | Percentage of ID, stomach ([4]; 2 min p.i.) [% ID] | Percentage of ID, urine ([4]; 2 min p.i.) [% ID] | SUV, blood ([4]; 2 min p.i.) | SUV, brain ([4]; 2 min p.i.) | SUV, heart ([4]; 2 min p.i.) | SUV, kidneys ([4]; 2 min p.i.) | SUV, liver ([4]; 2 min p.i.) | SUV, lungs ([4]; 2 min p.i.) | SUV, spleen ([4]; 2 min p.i.) | Compound | other results
0.42 | 24700 | 422 |  |  |  |  |  |  |  |  |  |  |  |  |  |  |  |  |  | COc1ccc(S(N)(=O)=O)cc1 [(6)] | 
1.13 | 96 | 8 |  |  |  |  |  |  |  |  |  |  |  |  |  |  |  |  |  | NS(=O)(=O)c1ccc(CCNC(=O)c2ccc(OCCF)cc2)cc1 [(3)] | 
 |  |  | 0.7 ± 0.1 | 28.4 ± 2.0 | 0.7 ± 0.2 | 5.2 ± 0.9 | 3.7 ± 0.1 | 6.9 ± 0.4 | 6.3 ± 2.7 | 1.2 ± 0.1 | 1.5 ± 0.3 | 0.3 ± 0.1 | 11.9 ± 1.1 | 0.7 ± 0.1 | 1.6 ± 0.4 | 2.4 ± 0.3 | 1.5 ± 0.1 | 6.2 ± 2.1 | 1.9 ± 0.8 | [11CH3]Oc1ccc(S(N)(=O)=O)cc1 [[^11C]-(6), 4-[^11C]methoxybenzene sulfonamide] | Percentage of ID, blood ([4]; 2 min p.i.): 83.4 ± 7.7 % ID; Percentage of ID, brain ([4]; 60 min p.i.): 1.5 ± 0.1 % ID; Percentage of ID, carcass ([4]; 60 min p.i.): 26.1 ± 1.0 % ID; Percentage of ID, heart ([4]; 60 min p.i.): 0.4 ± 0.1 % ID; Percentage of ID, intestines ([4]; 60 min p.i.): 19.3 ± 1.0 % ID; Percentage of ID, kidneys ([4]; 60 min p.i.): 4.1 ± 0.6 % ID; Percentage of ID, liver ([4]; 60 min p.i.): 6.1 ± 0.5 % ID; Percentage of ID, lungs ([4]; 60 min p.i.): 3.1 ± 1.4 % ID; Percentage of ID, spleen + pancreas ([4]; 60 min p.i.): 2.3 ± 0.6 % ID; Percentage of ID, stomach ([4]; 60 min p.i.): 2.4 ± 0.2 % ID; Percentage of ID, urine ([4]; 60 min p.i.): 4.8 ± 0.3 % ID; SUV, blood ([4]; 60 min p.i.): 7.1 ± 0.7; SUV, brain ([4]; 60 min p.i.): 1.1 ± 0.1; SUV, heart ([4]; 60 min p.i.): 0.9 ± 0.1; SUV, kidneys ([4]; 60 min p.i.): 2.4 ± 0.2; SUV, liver ([4]; 60 min p.i.): 1.4 ± 0.2; SUV, lungs ([4]; 60 min p.i.): 3.5 ± 1.1; SUV, spleen ([4]; 60 min p.i.): 2.4 ± 0.4; Percentage of ID, blood ([4]; 60 min p.i.): 49.7 ± 4.8 % ID
 |  |  | 0.2 ± 0.0 | 17.6 ± 1.5 | 0.5 ± 0.1 | 3.6 ± 1.3 | 8.1 ± 1.3 | 8.4 ± 0.7 | 4.9 ± 2.5 | 0.6 ± 0.1 | 0.7 ± 0.1 | 0.4 ± 0.1 | 12.9 ± 0.8 | 0.2 ± 0.0 | 1.2 ± 0.2 | 4.3 ± 0.7 | 1.5 ± 0.2 | 6.0 ± 1.6 | 0.9 ± 0.1 | [11CH3]Oc1ccc(C(=O)NCCc2ccc(S(N)(=O)=O)cc2)cc1 [[^11C]-(4), 4-[^11C]methoxybenzoyl aminoethylbenzenesulfonamide] | Percentage of ID, blood ([4]; 2 min p.i.): 90.5 ± 5.9 % ID; Percentage of ID, brain ([4]; 60 min p.i.): 0.3 ± 0.0 % ID; Percentage of ID, carcass ([4]; 60 min p.i.): 21.2 ± 2.8 % ID; Percentage of ID, heart ([4]; 60 min p.i.): 0.5 ± 0.1 % ID; Percentage of ID, intestines ([4]; 60 min p.i.): 12.4 ± 0.8 % ID; Percentage of ID, kidneys ([4]; 60 min p.i.): 4.1 ± 0.3 % ID; Percentage of ID, liver ([4]; 60 min p.i.): 9.2 ± 1.1 % ID; Percentage of ID, lungs ([4]; 60 min p.i.): 4.2 ± 1.1 % ID; Percentage of ID, spleen + pancreas ([4]; 60 min p.i.): 0.8 ± 0.1 % ID; Percentage of ID, stomach ([4]; 60 min p.i.): 2.6 ± 0.3 % ID; Percentage of ID, urine ([4]; 60 min p.i.): 4.4 ± 2.7 % ID; SUV, blood ([4]; 60 min p.i.): 10.4 ± 1.1; SUV, brain ([4]; 60 min p.i.): 0.2 ± 0.0; SUV, heart ([4]; 60 min p.i.): 1.0 ± 0.3; SUV, kidneys ([4]; 60 min p.i.): 2.5 ± 0.2; SUV, liver ([4]; 60 min p.i.): 1.9 ± 0.3; SUV, lungs ([4]; 60 min p.i.): 4.7 ± 0.7; SUV, spleen ([4]; 60 min p.i.): 1.1 ± 0.2; Percentage of ID, blood ([4]; 60 min p.i.): 72.5 ± 7.6 % ID
